Test results published in ChEMBL document CHEMBL4052746, “Flavonoid glycosides from Barringtonia acutangula” (Bioorg Med Chem Lett, 2017).
pIC50: −log10 of the molar value.

How the values were obtained:
RAW264.7 [1] = experiment: Cytotoxicity against mouse RAW264.7 cells assessed as reduction in cell viability by MTT assay; format: cell-based
RAW264.7 [2] = experiment: Antiinflammatory activity in mouse RAW264.7 cells assessed as inhibition of LPS-induced NO production pretreated for 30 mins followed by LPS stimulation for 24 hrs by Griess assay; format: functional, cell-based

O=C(OC[C@H]1O[C@@H](Oc2c(-c3ccc(O)c(O)c3)oc3cc(O)cc(O)c3c2=O)[C@H](O)[C@@H](O)[C@H]1O)c1ccc(O)cc1
Activity (RAW264.7 [1]): Non-Toxic | pIC50 (RAW264.7 [2]): 4.70
